From the NIST ThermoML archive (doi:10.1021/acs.jced.9b00354)
± gives the expanded uncertainty stated by the source.

Assay: mn = molality of the nth substance listed, in mol/kg
Conditions: 308.15 K, 100 kPa, Liquid, m1 = 0.0148

SMILES: O=S(=O)([O-])[O-].[Ca+2] [calcium sulfate] + O
- speed of sound (Single path-length method): 1521.4 ± 0.7 m/s
- mass density (Vibrating tube method): 995.9 ± 10 kg/m3
